One test deals with glaucoma. To be noted: clinical trial; Eur. J. Ophthalmol. 1997, 7(1): 35-9; cited from earlier work.
Test [1] has as its system ocular hypertension models of New Zealand White Rabbits. Put plainly: Intraocular pressure lowering test (4), ocular hypertension model (Example 4). The following applies: relative to control group. The test is classed as in vivo. As for the experimental part:
Using New Zealand White Rabbits having body weights of 2 to 3 kg, ocular hypertension models were prepared in accordance with the method of Kurihara, et al. (Jpn. J. Ocular Pharmacology, 4, 62-64(1990)) and the intraocular pressure lowering action of the test compounds was investigated.
Described specifically, the rabbits were maintained under general anesthesia and their intraocular pressure was measured using a tonometer (“Alcon Applanation Pneumatonography”; manufactured by Alcon). After instillation of local anesthetics into the eyes of the rabbits, 0.1 ml of a 5% sodium chloride solution were injected into their vitreous bodies through a 30 gauge needle. An increase in the intraocular pressure was confirmed 30 minutes after injection, followed by administration of 50 μl of an eye drop solution containing the test compound. Their intraocular pressure was then measured for 2 hours at intervals of 30 minutes (single administration test).
An ocular hypertension model was made as in Example 1. After confirmation of an increase in the intraocular pressure, 50 μl of a test compound 1 was instilled to the eyes, followed by application of the same amount of a test compound 2 into the eyes after 5 minutes. After this second administration, the intraocular pressure was measured for 2 hours at intervals of 1 hour. Intraocular pressure lowering was determined by the below-described equation. Decrease in intraocular pressure (mmHg)=(intraocular pressure after instillation of a compound group−intraocular pressure before instillation of the compound group)−(intraocular pressure after instillation of a control group−intraocular pressure before instillation of the control group)
The term “control group” in the above-described formula means a group to which physiological saline was administered to the eyes instead of each of the test compound 1 and test compound 2. Groups other than this control group are a compound group.
Also in this Example, the same test compounds as described in Example 1 were employed.

Test [2] relates to intraocular pressure of New Zealand White Rabbits. Put plainly: Intraocular pressure lowering test (3), change ratio of intraocular pressure (Example 3). The test is classed as in vivo. To be noted: 50 μl each, four hours after second administration. As for the experimental part:
Using a tonometer (“Alcon Applanation Pneumatonography; manufactured by Alcon), the intraocular pressure of each of New Zealand White Rabbits having body weights of 2 to 3 kg was measured (without anesthesia), followed by administration of 50 μl of a test compound in the form of eye drops. The intraocular pressure was then measured for 4 hours at intervals of one hour (single administration test).
After the measurement of the intraocular pressure as in Example 2, 50 μl of a solution of test compound 1 was instilled into the eyes, followed by administration of the same amount of the solution of test compound 2 after 5 minutes. Four hours after the second administration, the intraocular pressure was measured and the change ratio of the intraocular pressure was determined by the below-described equation: The change ratio of intraocular pressure (%)=[(intraocular pressure after administration of eye drops−intraocular pressure before administration of eye drops)/intraocular pressure before administration of eye drops]×100.
In this Example, the same test compounds as Example 1 were employed. The results are shown below in Tables 1 and 2.

Structures can show the parent of a compound that is named as a salt.

`CCCCC(=O)N(Cc1ccc(-c2ccccc2-c2nnn[nH]2)cc1)[C@H](C(=O)O)C(C)C` [CGP-48933]: the effect for glaucoma entry in the test on glaucoma is “insufficient”.

As to `CCCc1nc(C(C)(C)O)c(C(=O)O)n1Cc1ccc(-c2ccccc2-c2nnn[nH]2)cc1` [Compound A], the “Decrease in intraocular pressure (mmHg)” value in test [1] (Compound A (1%) then physiological saline, time after instillation 0 min) is 0.0 ± 2.1 mmHg; in test [1] (Compound A (1%) then physiological saline, time after instillation 60 min) it was −1.7 ± 2.2 mmHg; in test [1] (Compound A (1%) then physiological saline, time after instillation 120 min) it was −3.4 ± 1.7 mmHg. Moreover, the “Change ratio (%) of intraocular pressure” value came out at 11.4 ± 5.5% in test [2] (Table 1, Compound A (4%) then physiological saline) and 11.5 ± 4.1% in test [2] (Table 2, Compound A (4%) then physiological saline).

Turning to `CC(C)(C)NC[C@H](O)COc1nsnc1N1CCOCC1` [Compound B, timolol maleate], the “Decrease in intraocular pressure (mmHg)” value in test [1] (physiological saline then Compound B (0.25%), time after instillation 0 min) is recorded as 0.0 ± 1.5 mmHg; in test [1] (physiological saline then Compound B (0.25%), time after instillation 60 min), −2.0 ± 3.5 mmHg; in test [1] (physiological saline then Compound B (0.25%), time after instillation 120 min) it was −1.9 ± 3.2 mmHg.

Regarding `CCCCCCCC(=O)CC[C@@H]1[C@@H](C/C=C\CCCC(=O)OC(C)C)[C@@H](O)C[C@H]1O` [Compound C, isopropyl unoprostone], in test [2] (Table 1, physiological saline then Compound C (0.12%)), the “Change ratio (%) of intraocular pressure” value is recorded as −2.4 ± 9.1%.

In the case of `CC(C)OC(=O)CCC/C=C\C[C@@H]1[C@@H](CC[C@@H](O)CCc2ccccc2)[C@H](O)C[C@@H]1O` [Compound D, latanoprost], the “Change ratio (%) of intraocular pressure” value in test [2] (Table 2, physiological saline then Compound D (0.005%)) is given as 17.2 ± 8.8%.
